Consider one compound from publication PMC3311054 (2012).

Assay [1] deals with bovine milk xanthine oxidoreductase (bXOR) (Bos taurus, UniProt P80457). The experiment in a line: steady-state kinetics, xanthine-NAD+ activity, uric acid absorbance at […] nm. The format is biochemical.
For assay [2], the target named is T1, Rhodobacter capsulatus xanthine oxidoreductase (RcXOR) (Rhodobacter capsulatus, UniProt O54051).
T1 sequence (O54051 1-777): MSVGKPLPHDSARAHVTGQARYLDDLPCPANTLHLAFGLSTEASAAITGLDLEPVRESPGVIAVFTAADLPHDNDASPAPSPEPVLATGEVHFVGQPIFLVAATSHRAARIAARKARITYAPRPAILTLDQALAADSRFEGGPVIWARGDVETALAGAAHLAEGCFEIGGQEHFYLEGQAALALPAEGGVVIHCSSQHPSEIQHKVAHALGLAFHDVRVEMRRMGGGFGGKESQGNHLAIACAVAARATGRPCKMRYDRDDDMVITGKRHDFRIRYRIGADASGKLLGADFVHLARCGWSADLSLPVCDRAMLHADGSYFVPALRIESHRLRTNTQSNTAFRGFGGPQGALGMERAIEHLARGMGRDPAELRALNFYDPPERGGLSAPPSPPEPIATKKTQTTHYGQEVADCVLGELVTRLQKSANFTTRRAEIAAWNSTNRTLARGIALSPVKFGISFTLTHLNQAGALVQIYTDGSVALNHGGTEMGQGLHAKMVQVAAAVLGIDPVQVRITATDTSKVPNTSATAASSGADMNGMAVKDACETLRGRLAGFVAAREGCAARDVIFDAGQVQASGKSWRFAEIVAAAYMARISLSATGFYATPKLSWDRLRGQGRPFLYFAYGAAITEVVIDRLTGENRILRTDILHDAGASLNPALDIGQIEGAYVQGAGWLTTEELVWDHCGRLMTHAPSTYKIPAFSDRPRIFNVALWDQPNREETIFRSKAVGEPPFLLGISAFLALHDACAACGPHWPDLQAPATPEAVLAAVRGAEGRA
T1 sequence (O54050 1-462 partner): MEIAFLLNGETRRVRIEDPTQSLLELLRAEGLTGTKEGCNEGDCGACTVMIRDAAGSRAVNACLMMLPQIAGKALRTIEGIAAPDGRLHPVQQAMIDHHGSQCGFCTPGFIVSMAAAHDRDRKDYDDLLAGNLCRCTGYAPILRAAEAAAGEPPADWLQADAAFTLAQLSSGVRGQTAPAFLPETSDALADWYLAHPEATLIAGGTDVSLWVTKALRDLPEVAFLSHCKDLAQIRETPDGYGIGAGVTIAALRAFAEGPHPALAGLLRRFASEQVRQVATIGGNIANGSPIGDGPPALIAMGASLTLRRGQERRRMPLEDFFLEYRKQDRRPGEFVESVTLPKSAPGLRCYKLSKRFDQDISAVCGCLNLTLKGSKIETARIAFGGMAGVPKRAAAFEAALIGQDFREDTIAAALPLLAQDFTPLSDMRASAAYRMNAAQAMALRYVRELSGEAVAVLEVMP
The experiment in a line: steady-state kinetics, Lineweaver-Burk plots of xanthine-NAD+ activity. The format is biochemical.

The structures appear in SMILES notation. A value given as a limit tells only on which side of the number the result lay.

For orientation: Ki means the dissociation constant of the complex between target and ligand, obtained from inhibition or displacement. Low values mean a stronger hold on the target, high ones a looser hold on the target.

bovine milk xanthine oxidoreductase (bXOR), sequence (P80457 2-1332): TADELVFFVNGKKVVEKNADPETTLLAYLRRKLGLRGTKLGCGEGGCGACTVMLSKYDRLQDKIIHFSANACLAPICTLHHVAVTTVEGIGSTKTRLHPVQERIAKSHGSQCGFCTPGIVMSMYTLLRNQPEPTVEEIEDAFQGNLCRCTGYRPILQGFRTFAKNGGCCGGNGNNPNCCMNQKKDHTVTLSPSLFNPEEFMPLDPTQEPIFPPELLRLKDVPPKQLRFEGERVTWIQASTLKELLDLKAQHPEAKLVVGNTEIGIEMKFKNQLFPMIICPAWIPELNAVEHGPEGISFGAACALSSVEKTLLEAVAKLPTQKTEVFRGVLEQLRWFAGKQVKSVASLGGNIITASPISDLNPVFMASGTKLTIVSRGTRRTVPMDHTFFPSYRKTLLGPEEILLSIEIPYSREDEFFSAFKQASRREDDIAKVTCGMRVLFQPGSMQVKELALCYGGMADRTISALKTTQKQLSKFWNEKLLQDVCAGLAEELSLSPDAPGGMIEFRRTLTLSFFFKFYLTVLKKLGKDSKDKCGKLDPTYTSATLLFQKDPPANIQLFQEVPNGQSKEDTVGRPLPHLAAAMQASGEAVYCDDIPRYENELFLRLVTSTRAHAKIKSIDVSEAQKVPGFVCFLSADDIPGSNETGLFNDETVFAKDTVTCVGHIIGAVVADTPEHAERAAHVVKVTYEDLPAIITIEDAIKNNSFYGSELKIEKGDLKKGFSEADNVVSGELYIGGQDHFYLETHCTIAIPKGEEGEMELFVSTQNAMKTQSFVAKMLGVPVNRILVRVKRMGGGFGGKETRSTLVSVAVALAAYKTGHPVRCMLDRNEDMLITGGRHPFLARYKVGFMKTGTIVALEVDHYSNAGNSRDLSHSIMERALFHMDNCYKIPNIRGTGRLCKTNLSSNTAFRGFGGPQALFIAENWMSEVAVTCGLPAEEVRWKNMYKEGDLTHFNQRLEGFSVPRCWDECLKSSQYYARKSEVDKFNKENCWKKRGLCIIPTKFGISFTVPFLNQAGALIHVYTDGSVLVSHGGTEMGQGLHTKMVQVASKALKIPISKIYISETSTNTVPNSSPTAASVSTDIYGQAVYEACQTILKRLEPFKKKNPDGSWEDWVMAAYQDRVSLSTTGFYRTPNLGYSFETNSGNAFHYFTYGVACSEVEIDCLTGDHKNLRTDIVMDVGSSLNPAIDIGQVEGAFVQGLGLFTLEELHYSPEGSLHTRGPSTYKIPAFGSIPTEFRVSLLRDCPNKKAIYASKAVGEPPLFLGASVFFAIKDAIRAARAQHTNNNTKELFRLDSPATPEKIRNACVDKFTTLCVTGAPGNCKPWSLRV

Take `Cc1nc(-c2ccc(OCC(C)C)c(C#N)c2)sc1C(=O)O` [febuxostat]: the “steady-state kinetics, xanthine-NAD+ activity, uric acid absorbance at 295 nm” value in assay [1] was less than 100 nM. Affinity in assay [2] was put at a Ki of 17.5 µM.
